{"source": "patent US9145415B2", "about": "“Nitrogen-containing heterocyclic compound or salt thereof” (FUJIFILM Corporation, priority 2012, dated 2015)", "key": {"Molm-13 cells": {"test_system": "Molm-13 cells", "test": "Leukemia cell proliferation inhibition test (ATPlite), Molm-13", "format": "cell-based", "details": "read-out: MOLM13 cell proliferation inhibition effect", "summary_of_the_method": "(§1)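 Molm-13 or MV4-11 cells in RPMI with 10% FBS and pen/strep, seeded at 10,000 cells per well, were exposed to serially diluted compound for 72 hours at 37° C, 5% CO2. Total cellular ATP was read by luciferase luminescence. GI50 came from sigmoid fits against the 0.1% DMSO control, in duplicate.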"}, "[1]": {"molecular_target": "T1, human FLT3 protein (FLT3 (WT)) (Homo sapiens, UniProt P36888)", "T1 construct": "human FLT3 protein (intracellular region, 564 to 993 aa); GST; purchased Carna Biosciences; host or cells: baculovirus expression system", "T1 sequence (P36888 564-993)": "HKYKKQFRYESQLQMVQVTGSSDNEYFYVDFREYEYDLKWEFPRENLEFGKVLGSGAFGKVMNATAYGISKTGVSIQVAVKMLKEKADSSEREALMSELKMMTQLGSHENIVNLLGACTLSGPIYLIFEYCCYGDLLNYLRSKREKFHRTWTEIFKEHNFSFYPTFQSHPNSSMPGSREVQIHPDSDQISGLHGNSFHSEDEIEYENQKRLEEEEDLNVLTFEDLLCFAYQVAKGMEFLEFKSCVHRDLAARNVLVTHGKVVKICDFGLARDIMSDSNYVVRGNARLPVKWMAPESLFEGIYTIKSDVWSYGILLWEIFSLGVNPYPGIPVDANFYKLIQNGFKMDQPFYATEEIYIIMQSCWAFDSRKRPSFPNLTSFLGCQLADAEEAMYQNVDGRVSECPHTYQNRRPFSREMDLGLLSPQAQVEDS", "test": "FLT3 inhibition test (FLT3 enzyme inhibition, time-resolved fluorescence of substrate peptide phosphorylation)", "format": "biochemical", "details": "read-out: FLT3 (WT) enzyme inhibition activity", "summary_of_the_method": "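Substrate peptide phosphorylation detected by time-resolved fluorescence after a 30 min kinase reaction at 25° C with 50 μM ATP (final). Beforehand, compound and FLT3 (WT, 1.2 μg) stood 15 min at 25° C in HEPES buffer pH 7.5 containing MgCl2, NaCl, BSA and DTT.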"}, "MV4-11 cells": {"test_system": "MV4-11 cells", "test": "Leukemia cell proliferation inhibition test (ATPlite), MV4-11", "format": "cell-based", "details": "read-out: MV4-11 cell proliferation inhibition effect", "summary_of_the_method": "as §1"}, "[2]": {"details": "Homo sapiens, MOLM-13, 72 h, Molm-13, 72 hours culture, ATPlite, GI50 per method"}, "[3]": {"details": "GST-fused human FLT3 (564 to 993 aa), ATP 50 μM"}, "[4]": {"details": "Homo sapiens, MV4-11, 72 h, MV4-11, 72 hours culture, ATPlite, GI50 per method"}, "[5]": {"details": "Homo sapiens, MOLM-13, MOLM13 cell"}, "[6]": {"details": "Homo sapiens, MV4-11, MV4-11 cell"}}, "note": "Like-named read-outs stand apart in the source and are kept apart here."}
{"smiles": "CNc1nc(Nc2ccc3[nH]ncc3c2)ncc1C#CCCCNC(=O)[C@@H]1CCCN1C(=O)/C=C/CN(C)C", "note": "[Compound 10-66, (S,E)-N-(5-(2-((1H-Indazol-5-yl)amino)-4-(methylamino)pyrimidin-5-yl)-4-pentyn-1-yl)-1-(4-(dimethylamino)-2-butenoyl)pyrrolidine-2-carboxamide]", "values": [{"measurement": "IC50", "setting": "Molm-13 cells; [2]", "value": "< 10", "unit": "nM"}, {"measurement": "IC50", "setting": "[1]; [3]", "value": "< 10", "unit": "nM"}, {"measurement": "IC50", "setting": "MV4-11 cells; [4]", "value": "< 10", "unit": "nM"}]}
{"smiles": "CCCNc1nc(Nc2ccc3c(cnn3CCOC)c2)ncc1C#CCCCNC(=O)[C@H](C)N(C)C(=O)/C=C/CN(C)C", "note": "[Compound 22-10]", "values": [{"measurement": "IC50", "setting": "Molm-13 cells; [5]", "value": "< 10", "unit": "nM"}, {"measurement": "IC50", "setting": "[1]; FLT3 (WT)", "value": "< 10", "unit": "nM"}, {"measurement": "IC50", "setting": "MV4-11 cells; [6]", "value": "< 10", "unit": "nM"}]}
{"smiles": "CCCNc1nc(Nc2ccc3[nH]ncc3c2)ncc1C#CCCCNC(=O)[C@@H]1CCCN1C(=O)/C=C/CN(C)C", "note": "[Compound 22-62]", "values": [{"measurement": "IC50", "setting": "Molm-13 cells; [5]", "value": "< 10", "unit": "nM"}, {"measurement": "IC50", "setting": "[1]; FLT3 (WT)", "value": "< 10", "unit": "nM"}, {"measurement": "IC50", "setting": "MV4-11 cells; [6]", "value": "< 10", "unit": "nM"}]}
{"smiles": "CCCNc1nc(Nc2ccc3cn[nH]c3c2)ncc1C#CCCCNC(=O)[C@@H]1CCCN1C(=O)/C=C/CN(C)C", "note": "[Compound 22-63]", "values": [{"measurement": "IC50", "setting": "Molm-13 cells; [5]", "value": "< 10", "unit": "nM"}, {"measurement": "IC50", "setting": "[1]; FLT3 (WT)", "value": "< 10", "unit": "nM"}, {"measurement": "IC50", "setting": "MV4-11 cells; [6]", "value": "< 10", "unit": "nM"}]}
{"smiles": "CCCNc1nc(Nc2cc(F)c3c(c2)c(N(C)C)nn3C)ncc1C#CCCCNC(=O)[C@H](C)N(C)C(=O)/C=C/CN(C)C", "note": "[Compound 22-13]", "values": [{"measurement": "IC50", "setting": "Molm-13 cells; [5]", "value": "10 to 100", "unit": "nM"}, {"measurement": "IC50", "setting": "[1]; FLT3 (WT)", "value": "10 to 100", "unit": "nM"}, {"measurement": "IC50", "setting": "MV4-11 cells; [6]", "value": "100 to 1000", "unit": "nM"}]}
{"smiles": "CCCNc1nc(Nc2ccc(C#N)cc2)ncc1C#CCCC(=O)NCCN(C)C(=O)/C=C/CN(C)C", "note": "[Compound 8-22]", "values": [{"measurement": "IC50", "setting": "Molm-13 cells; [2]", "value": "10 to 100", "unit": "nM"}, {"measurement": "IC50", "setting": "[1]; [3]", "value": "< 10", "unit": "nM"}, {"measurement": "IC50", "setting": "MV4-11 cells; [4]", "value": "10 to 100", "unit": "nM"}]}
{"smiles": "CCCNc1nc(Nc2cccc(F)c2)ncc1C#CCCCNC(=O)[C@H](CC)N(C)C(=O)/C=C/CN(C)C", "note": "[Compound 7-17]", "values": [{"measurement": "IC50", "setting": "Molm-13 cells; [2]", "value": "< 10", "unit": "nM"}, {"measurement": "IC50", "setting": "[1]; [3]", "value": "< 10", "unit": "nM"}, {"measurement": "IC50", "setting": "MV4-11 cells; [4]", "value": "< 10", "unit": "nM"}]}
{"smiles": "C[C@@H](C(=O)NCCCC#Cc1cnc(Nc2cccc(C#N)c2)nc1N1CCOCC1)N(C)C(=O)/C=C/CN(C)C", "note": "[Compound 9-2]", "values": [{"measurement": "IC50", "setting": "Molm-13 cells; [2]", "value": "10 to 100", "unit": "nM"}, {"measurement": "IC50", "setting": "[1]; [3]", "value": "< 10", "unit": "nM"}, {"measurement": "IC50", "setting": "MV4-11 cells; [4]", "value": "10 to 100", "unit": "nM"}]}
{"smiles": "CCCNc1nc(Nc2ccc(C(N)=O)cc2)ncc1C#CCCCNC(CCOC)(CCOC)CNC(=O)/C=C/CN(C)C", "note": "[Compound 8-13]", "values": [{"measurement": "IC50", "setting": "Molm-13 cells; [2]", "value": "10 to 100", "unit": "nM"}, {"measurement": "IC50", "setting": "[1]; [3]", "value": "< 10", "unit": "nM"}, {"measurement": "IC50", "setting": "MV4-11 cells; [4]", "value": "10 to 100", "unit": "nM"}]}
{"smiles": "CCCNc1nc(Nc2ccccc2F)ncc1C#CCCCNC(=O)[C@H](C)N(C)C(=O)/C=C/CN(C)C", "note": "[Compound 12-10]", "values": [{"measurement": "IC50", "setting": "Molm-13 cells; [2]", "value": "100 to 1000", "unit": "nM"}, {"measurement": "IC50", "setting": "[1]; [3]", "value": "< 10", "unit": "nM"}, {"measurement": "IC50", "setting": "MV4-11 cells; [4]", "value": "10 to 100", "unit": "nM"}]}
{"smiles": "COCCNc1nc(Nc2ccc(C#N)cc2)ncc1C#CCCCNC(=O)[C@H](C)N(C)C(=O)/C=C/CN(C)C", "note": "[Compound 10-50]", "values": [{"measurement": "IC50", "setting": "Molm-13 cells; [2]", "value": "< 10", "unit": "nM"}, {"measurement": "IC50", "setting": "[1]; [3]", "value": "< 10", "unit": "nM"}, {"measurement": "IC50", "setting": "MV4-11 cells; [4]", "value": "< 10", "unit": "nM"}]}
{"smiles": "C[C@@H](C(=O)NCCCC#Cc1cnc(Nc2ccc(C#N)cc2)nc1N1CCC(F)CC1)N(C)C(=O)/C=C/CN(C)C", "note": "[Compound 10-41]", "values": [{"measurement": "IC50", "setting": "Molm-13 cells; [2]", "value": "< 10", "unit": "nM"}, {"measurement": "IC50", "setting": "[1]; [3]", "value": "< 10", "unit": "nM"}, {"measurement": "IC50", "setting": "MV4-11 cells; [4]", "value": "< 10", "unit": "nM"}]}
{"smiles": "C=CC(=O)Nc1cc(NC(=O)c2cnc(NCCc3ccncc3)nc2NCCC)cc(C(F)(F)F)c1", "note": "[Compound 2-28]", "values": [{"measurement": "IC50", "setting": "Molm-13 cells; [2]", "value": "100 to 1000", "unit": "nM"}, {"measurement": "IC50", "setting": "[1]; [3]", "value": "100 to 1000", "unit": "nM"}, {"measurement": "IC50", "setting": "MV4-11 cells; [4]", "value": "100 to 1000", "unit": "nM"}]}
{"smiles": "CCCNc1nc(NCCc2ccncc2)ncc1C(=O)Nc1cccc(NC(=O)CCNC(=O)/C=C/CN(C)C)c1", "note": "[Compound 2-10]", "values": [{"measurement": "IC50", "setting": "Molm-13 cells; [2]", "value": "100 to 1000", "unit": "nM"}, {"measurement": "IC50", "setting": "[1]; [3]", "value": "< 10", "unit": "nM"}, {"measurement": "IC50", "setting": "MV4-11 cells; [4]", "value": "100 to 1000", "unit": "nM"}]}
{"smiles": "C=CC(=O)N(C)CC(=O)NCCCNC(=O)c1cnc(Nc2ccc3cnncc3c2)nc1NCCC", "note": "[Compound 6-10A, N-(3-(2-(N-methylacrylylamido)actamido)propyl)-2-((phthalazin-6-yl)amino)-4-(propylamino)pyrimidine-5-carboxamide]", "values": [{"measurement": "IC50", "setting": "Molm-13 cells; [2]", "value": "100 to 1000", "unit": "nM"}, {"measurement": "IC50", "setting": "[1]; [3]", "value": "< 10", "unit": "nM"}, {"measurement": "IC50", "setting": "MV4-11 cells; [4]", "value": "10 to 100", "unit": "nM"}]}
{"smiles": "CCCNc1nc(Nc2cccc(F)c2)ncc1C#CCCCNC(=O)[C@@H]1CCCN1C(=O)/C=C/CN(C)C", "note": "[Compound 7-45]", "values": [{"measurement": "IC50", "setting": "Molm-13 cells; Molm-13, 72 hours culture, ATPlite, GI50 per method", "value": "< 10", "unit": "nM"}, {"measurement": "IC50", "setting": "[1]; [3]", "value": "< 10", "unit": "nM"}, {"measurement": "IC50", "setting": "MV4-11 cells; MV4-11, 72 hours culture, ATPlite, GI50 per method", "value": "< 10", "unit": "nM"}]}
{"smiles": "CCCNc1nc(Nc2ccc3c(cnn3C)c2)ncc1C#CCCCNC(=O)[C@H](C)N(C)C(=O)/C=C/CN(C)C", "note": "[Compound 21-6]", "values": [{"measurement": "IC50", "setting": "Molm-13 cells; [2]", "value": "< 10", "unit": "nM"}, {"measurement": "IC50", "setting": "[1]; [3]", "value": "< 10", "unit": "nM"}, {"measurement": "IC50", "setting": "MV4-11 cells; [4]", "value": "< 10", "unit": "nM"}]}
{"smiles": "C=CC(=O)NCCC(=O)NCCNC(=O)c1cnc(NCCc2ccncc2)nc1NCCC", "note": "[Compound 2-19]", "values": [{"measurement": "IC50", "setting": "Molm-13 cells; [2]", "value": "> 1000", "unit": "nM"}, {"measurement": "IC50", "setting": "[1]; [3]", "value": "10 to 100", "unit": "nM"}, {"measurement": "IC50", "setting": "MV4-11 cells; [4]", "value": "> 1000", "unit": "nM"}]}
